Measurements as given in patent US11826402B2, “Combination therapy involving antibodies against claudin 18.2 for treatment of metastatic pancreatic adenocarcinoma” (Astellas Pharma Inc., priority 2013, dated 2023).

How the values were obtained:
BxPC3 = assay: IMAB362-mediated CDC assay (healthy human serum pool, luciferase); format: cell-based
Procedure: (§1) CDC was performed as follows.

CAPAN1 = assay: as above; format: cell-based
Procedure: as §1

DANG = assay: as above; format: cell-based
Procedure: as §1

Panc05.04 = assay: as above; format: cell-based
Procedure: as §1

Suit2 = assay: as above; format: cell-based
Procedure: as §1

YAPC = assay: as above; format: cell-based
Procedure: as §1

Suit2-LVT metastases = assay: Suit2-LVT metastasis model (lung, Q-PCR and IHC); format: in vivo, mice; conditions: 200 μg IMAB362, day 42
Procedure: Animals were sacrificed on day 42 post graft. […] Human cells were immunohistochemically stained in tissue sections with anti-human MHC-class I antibodies. * p<0.05 (Kruskal-Wallis test). Error bars: mean±SD.
Metastasis treatments were performed with 10-12 Hsd:Athymic Nude-Foxn1^nu mice per treatment group. […] All mice were sacrificed at the same time point, as soon as the first symptoms of metastasis disease appeared (loss of weight, weakness, shortness of breath), or the first mouse died.
All their organs were macroscopically analyzed for metastasis. […] These organs were dissected into 4 equal pieces, two (lung: upper right and lower left lobe), which were stored for genomic DNA isolation. The other two pieces were formalin fixed and stored for IHC analysis (FIG. 2).
Preparation of genomic DNA and Q-PCR strategy: Genomic DNA was extracted from lung or liver tissue.
The Q-PCR strategy is based on the amplification of human DNA present in the metastases. The relative detection level of human DNA in the mouse lung sample correlates directly with the amount and/or size of the metastases.
The Q-PCR reaction was performed with primer pair #5861 5′-[…]-3′ (SEQ ID NO: 53) and #5862 5′-[…]-3′ (SEQ ID NO: 54) specifically amplifying the alpha-satellite DNA present in human chromosome 17, but not in mouse DNA. […] The curve was used to calculate (linear regression) the amount of human metastasis DNA present in mouse lung tissue. Q-PCR reactions were performed in 50 μl final volume comprised of 20 μl (200 ng) mouse lung DNA, 25 μl Sybr Green (Qiagen), 1.6 μl sense primer (10 μM) and 1.6 μl anti-sense primer and 1.8 μl H2O.
After 35 days the first mouse (isotype control group) died. Consequently, all mice were sacrificed on day 42 and lungs and livers were taken for IHC and Q-PCR analyses.
Q-PCR analysis of human DNA in the lungs of mice was repeated at least twice in triplicate. […] The surface of the positively stained cells in the lung sections was calculated using the ImageJ Program. […]

For “IMAB362: chimeric IgG1 antibody directed against CLDN18.2, developed by Ganymed Pharmaceuticals AG”, the “complement-dependent lysis” value (BxPC3) was “not lysed”, the “CDC EC50” value (CAPAN1) was “n.m” and the “CDC Max. lysis” value (CAPAN1) was “n.m”. The “complement-dependent lysis” value (CAPAN1; healthy human serum pool) was “not lysed”, the “CDC EC50” value (DANG) was “n.m” and the “CDC Max. lysis” value (DANG) was “n.m”. For the same substance, the “complement-dependent lysis” value (DANG; healthy human serum pool) was “not lysed”, the “CDC EC50” value (Panc05.04) was “n.m” and the “CDC Max. lysis” value (Panc05.04) was “n.m”. The “complement-dependent lysis” value (Panc05.04; healthy human serum pool) was “not lysed”, the “CDC EC50” value (Suit2) was “n.m” and the “CDC Max. lysis” value (Suit2) was “n.m”. The “complement-dependent lysis” value (Suit2; healthy human serum pool) was “not lysed”, the “complement-dependent lysis” value (YAPC; YAPC, healthy human serum pool) was “not lysed” and the “CDC EC50” value (YAPC; YPAC) was “n.m”. The “CDC Max. lysis” value (YAPC; YPAC) was “n.m”, the “surface of MHC-I stained cells in lung sections (IHC)” value (Suit2-LVT metastases; versus PBS) was “significant inhibition (P<0.05)” and the “percentage of human DNA in lungs (Q-PCR)” value (Suit2-LVT metastases; versus PBS and isotype control) was “significant decrease (P<0.05)”. For the same substance, the “surface of MHC-I stained cells in lung sections (IHC)” value (Suit2-LVT metastases; versus isotype control antibody) was “not significant”.
